Experimental data as given in patent US20190099456A1, “COMPOSITION FOR PROMOTING INTERFERON LAMBDA PRODUCTION AND PRODUCTION METHOD THEREFOR” (KIKKOMAN CORPORATION, priority 2016, published 2019).

What was measured:
BDCA3 DC [1] = assay: Test of promoting interferon λ3 production by BDCA3 DC co-cultured with lactic acid bacteria suspension; format: cell-based, human; conditions: 10 μM chloroquine, 24 hours
Protocol: First, an MRS medium containing 10% (w/v) salt was inoculated with strain KK221 so that a concentration became 1×10^7 cells/ml, and therefore a stock solution of lactic acid bacteria was prepared. The stock solution of lactic acid bacteria was statically cultured at 30° C. for 48 to 72 hours, and then subjected to a boiling and pasteurization treatment at 95° C. for 10 minutes, and therefore a pasteurization-treated culture solution was prepared. […]
Activity of promoting interferon λ production by the prepared lactic acid bacteria suspension was evaluated as follows by using dendritic cells collected and prepared from the peripheral blood of a non-virus infected healthy subject. […]
The number of cells of each isolated DC was measured, and a cell stock solution was prepared using an IMDM medium (GIBCO) containing 25 mM D-glucose, 25 mM HEPES, and […] so that a concentration became 5×10^4 cells/ml. […]
Using the recovered culture supernatant, interferon λ3 was measured by a chemiluminescent enzyme immunoassay method according to a method described in a document of Sugiyama, et al. [Sugiyama M, et al. Hepatol Res. 42 (11): 1089-1099, 2012]. […]

BDCA3 DC [2] = assay: Test of promoting cytokine production by BDCA3 DC (cytometric beads array); format: cell-based, human; conditions: lactic acid bacteria count/DC count=100
Protocol: Poly IC or the lactic acid bacteria suspension prepared by using strain KK221 according to Example 1, and BDCA3 DC were prepared and co-cultured so that lactic acid bacteria count/DC count=100, and the measurement of the activity of promoting production of various cytokines was carried out.
Note that each of TNFα, IL-10, IL-1β, IL-6, and IL-12p70 was measured by using cytometric beadsarray (CBA; Becton, Dickinson and Company).

Poly IC
activity of promoting interferon λ production according to addition of chloroquine (BDCA3 DC [1]): deteriorated | production of various cytokines (TNFα, IL-10, IL-1β, IL-6, IL-12p70, interferon α, interferon λ) by BDCA3 DC (BDCA3 DC [2]): nonspecifically promoted production of TNFα, interferon α, IL-6, and the like in addition to interferon λ (IL28B)
